# According to patent US8012929B2, “Peptides directed for diagnosis and treatment of amyloid-associated diseases” (Tel Aviv University Future Technology Development L.P., priority 2002, dated 2011):
# Square brackets hold non-standard residues; d marks the D form. Peptide text beside a SMILES is read from it. Aib = CC(C)(N)C(=O)O
# Experiments:
# [1] = Serum stability, human serum (HPLC); format: in vitro ADME; details: 37° C., 2 and 5 hours
# Description: D-Trp-Aib serum stability—Regardless of administration route, all drugs penetrate and distribute in the body via the blood system. This milieu is based not only on cells and buffering compounds, but also on proteins, carbohydrates, lipid-protein micelles, etc. Serum proteins mainly contain carrier proteins, such as albumin, but also contain many enzymes that might treat the drug as a substrate. Thus, the susceptibility of any drug entering this environment should be evaluated. The stability of D-Trp-Aib spiked into serum was evaluated by analysis of intact sample concentrations at different time points. D-Trp-Aib (250 μg/ml PBS) was incubated with mouse (Harlan Biotech, Israel) or human (obtained from Sheba medical center, Tel Hashomer, Israel) sera or PBS (1:1, 37° C.), and aliquots were analyzed by HPLC analysis at times 0, 2 and 5 hrs. The reaction was stopped and precipitation was effected by the addition of acetonitrile (Baker, Phillipsburg N.J.) and 10% TCA. Following centrifugation (10,000 g, 5 min), Supernatant was transferred to HPLC analysis. Mean amounts of D-Trp-Aib (μg)±s.e.m. were calculated by an internal calibration curve. […]
# HepG2 cells = assay: Cytotoxicity assay in hepatocytes; format: cell-based; details: up to 2.5×10^−4 M, 3H-Thymidine incorporation and Alamar-Blue assays
# Method: Cytotoxicity assay in hepatocytes—Following culture (37° C. in an atmosphere of 5% CO2 and 100% humidity), HepG2 cells (ATCC Accession No: HB-8065) were seeded at a density of 5000 cells/well in 96 well optical plate (Nunc, Rochester, N.Y.). Culture was maintained in the logarithmic phase throughout the experiment. One day after seeding, peptides were dissolved in DMSO (1:10) and added to the wells to achieve final concentrations of 2.5×10^−4−1×10^−8. Each plate column (8 wells) was used to test one peptide in one concentration. A day following peptide addition, ^3H-Thymidine was added to the cell culture, and two days following addition cells were harvested. ^3H-Thymidine incorporation to the DNA of proliferating cells was measured in Top Count NTX counter (Packard, Quebec, Canada). […] The indicator was incubated for 18 hours and fluorescence was measured with 544 nm excitation/590 nm emission wavelengths. Data was presented as the mean amount of Alamar-Blue fluorescence or ^3H-Thymidine CPM monitored per well. Average was calculated per plate column. For Alamar-Blue signals standard deviation (SD) was calculated, while for ^3H Thymidine signal, standard error (SE) was calculated. […] Equivocal results were analyzed using oneway (ANOVA) with Dunnett Multiple comparison Test.
# CYP450 3A4 = CYP450 3A4 (Homo sapiens, UniProt P08684); assay: Human CYP450 screen 3A4; format: in vitro ADME
# Description: For the metabolic stability assay, Human cytochrom P450 (CYP450) screens were used. The cytochrom P450 isoenzymes, which are located in the intestines, liver, lung, kidney and brain, are involved in important drug interactions. Drug metabolism occurs in two phases—Phase I involves oxidation, reduction, and hydrolysis. Phase II involves synthesis and conjugation. The CYP 450 isoenzymes are involved in Phase I oxidative reactions. CYP 450 interactions generally result from one of two processes—Induction, where a substance stimulates the synthesis of the enzyme and metabolic capacity is increased, and inhibition, where competitive binding at an enzyme's binding site(s) occurs. A drug with a high affinity for an enzyme will slow the metabolism of any low affinity drug. CYP 3A3/4 is the most abundant CYP 450 isoenzyme in humans and is responsible for the metabolism of the widest range of drugs/substances. (CYP450) screens used were 1A2, 2C9, 2C19, 2D6 and 3A4.
# Sequence of CYP450 3A4 (P08684 whole entry): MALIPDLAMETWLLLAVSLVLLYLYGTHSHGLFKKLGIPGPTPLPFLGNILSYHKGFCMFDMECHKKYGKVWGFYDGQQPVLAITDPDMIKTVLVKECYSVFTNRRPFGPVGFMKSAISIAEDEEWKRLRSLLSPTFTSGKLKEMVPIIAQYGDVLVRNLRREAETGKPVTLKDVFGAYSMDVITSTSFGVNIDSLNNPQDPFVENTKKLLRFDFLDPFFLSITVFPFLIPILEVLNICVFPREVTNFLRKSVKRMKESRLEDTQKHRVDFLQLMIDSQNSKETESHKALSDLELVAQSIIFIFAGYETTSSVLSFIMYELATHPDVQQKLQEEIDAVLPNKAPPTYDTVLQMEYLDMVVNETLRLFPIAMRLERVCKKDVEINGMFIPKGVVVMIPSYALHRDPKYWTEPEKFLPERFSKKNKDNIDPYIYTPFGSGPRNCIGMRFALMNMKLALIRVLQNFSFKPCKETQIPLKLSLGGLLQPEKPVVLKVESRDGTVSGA
smiles,measurement,setting,value
CC(C)(NC(=O)[C@H](N)Cc1c[nH]c2ccccc12)C(=O)O [D-Trp-Aib] (H-[dW]-[Aib]-OH),D-Trp-Aib concentration after incubation in serum,[1],No decrease
same,cytotoxic effect on HepG2 cells,HepG2 cells,no cytotoxic effect
same,activity in CYP450 screen,CYP450 3A4,None of the results met significance criteria
